Source: EP2373670B1, “NOVEL AMINO SUBSTITUTED C-GLYCOSIDE DERIVATIVES AND USE THEREOF AS COSMETIC” (L'Oréal, priority 2008, dated 2010)

Columns and labels:
Assay type in all cases: cell-based
[1] = test system: fibroblastes dermiques humains normaux; assay: Synthesis of sulfated glycosaminoglycans (radioactive label incorporation) in fibroblast cultures; details: for augmenter la synthèse des GAGs sulfatés: summary in words of the results on fibroblasts and keratinocytes
Source text: (§1) Etude de l'effet de dérivés C-glycosides sur la synthèse des glycosaminoglycannes sulfatés sur fibroblastes et sur kératinocytes : • L'étude est faite par mesure de l'incorporation de glucosamine radioactive dans la matrice néosynthétisée par des cultures de fibroblastes dermiques humains normaux ou par des kératinocytes. L'incorporation de glucosamine radioactive indique une néosynthèse spécifique de glycosaminoglycannes via une incorporation de la forme acétylée de cette glucosamine.
Les cultures de fibroblastes sont effectuées selon les méthodes classiques de culture cellulaire, à savoir en milieu DMEM vendu par la société Gibco, en présence de L-glutamine (2 mM), de pénicilline (50 Ul/ml) et de 10% de sérum de veau foetal (Gibco).
(§2) Les fibroblastes et les kératinocytes ont été cultivés en plaques de 96 puits. A confluence, le milieu de culture a été remplacé par du milieu de culture adéquat contenant ou non (témoin) le composé à tester ou la référence, puis les cellules ont été incubées pendant 48 heures. Le marqueur radioactif 35 S-sulfate a été ajouté (40 µCi final) et les cellules ont été incubées pendant 24 heures supplémentaires. Toutes les conditions ont été réalisées 3 fois.
(§3) Les glycosaminoglycanes de la matrice extracellulaire ont été extraits avec un volume tampon chaotropique (Tris/HCl 50 mM, guanidine 4 M, EDTA 5 mM, pH 8,0). Les GAGs sulfatés ont été purifiés par chromatographie d'échanges d'ions : absorption des molécules anioniques sur billes de Q-Sépahrose dans des conditions de forte stringence, désorption des molécules peu et moyennement anioniques avec uns solution urée 6 M NaCl […], puis lavages. La radioactivité incorporée dans les molécules […] restées sur le support (GAGs majoritairement) a été mesurée par scintillation liquide. Les résultats sont évalués par apport à un témoin constitué par des cellules n'ayant pas été traitées avec un composé de formule (I). Un témoin positif (TGFβ à 10 ng/ml) connu pour stimuler la synthèse des GAGs est introduit dans le test effectéu sur fibroblastes comme référence positive. Un témoin positif (CaCl2 à 1,4 mM) connu pour stimuler la synthèse des GAGs est introduit dans le test effectué sur kératinocytes comme référence positive.
(§4) Les résultats sont exprimés en pourcentage de variation de la synthèse des glycosaminoglycanes par rapport au témoin.
(§5) On a effectué 3 essais pour le composé testé.
(§6) Les comparaisons des résultats obtenus pour un composé testé ont été réalisés à l'aide du test de Student.
(§7) L'écart type de la moyenne (esm) a été calculé selon la relation suivante : esm = écart type/((n))^(1/2) [formula] • n étant le nombre d'essais effectués.
(§8) Les valeurs mesurées sont données en coups par minute (cpm) • n : nombre d'essais effectués • p : intervalle de confiance • esm : écart type de la moyenne

[2] = test system: fibroblastes dermiques humains normaux; assay: as above; details: fibroblasts, second experiment, n=2; for activity at 100 µM / activity at 1000 µM: Fibroblast, control = 100, read-out: % (synthèse des glycosaminoglycanes par rapport au témoin)
[3] = test system: kératinocytes; assay: Synthesis of sulfated glycosaminoglycans (radioactive label incorporation) in keratinocyte cultures; details: keratinocytes, second experiment, n=2
[4] = test system: kératinocytes; assay: as above; details: keratinocytes, n=3
Source text: as §1
Les cultures de kératinocytes sont effectuées en milieu Keratinocyte-SFM vendu par la société Gibco , en présence d'EGF (Epidermal Growth Factor) (0,25 ng/ml), d'extrait pituitaire (25 µg/ml) et de gentamycine (25 µg/ml).
as §2, §3, §4, §5, §6, §7, §8

[5] = Keratinocyte, 0,1 mM, control = 100, read-out: % (synthèse des glycosaminoglycanes par rapport au témoin)
[6] = Keratinocyte, 1 mM, control = 100, read-out: % (synthèse des glycosaminoglycanes par rapport au témoin)

## CCCCCCNC(C)C[C@@H]1OC[C@@H](O)[C@H](O)[C@H]1O (some centres unmarked) [Composé de l'exemple 10]
[1]
  augmenter la synthèse des GAGs sulfatés: très efficaces
[2]; 0,1 mM
  activity at 100 µM: 553%
  Valeur moyenne: 13925 cpm
[2]; 1 mM
  activity at 1000 µM: 595%
  Valeur moyenne: 14992 cpm
[3]; [5]
  activity at 100 µM: 427%
[3]; [6]
  activity at 1000 µM: 255%
[3]; 0,1 mM
  Valeur moyenne: 54897 cpm
[3]; 1 mM
  Valeur moyenne: 32733 cpm

## CC(C[C@@H]1OC[C@@H](O)[C@H](O)[C@H]1O)NCCCO (stereo partly drawn) [1-[2-(3-hydroxy-propylamino)-propyl]-C-β-D-xylopyranose]
[2]; 0,1 mM
  activity at 100 µM: 113%
  Valeur moyenne: 2856 cpm
[2]; 1 mM
  activity at 1000 µM: 121%
  Valeur moyenne: 3039 cpm
[3]; [5]
  activity at 100 µM: 99%
[3]; [6]
  activity at 1000 µM: 145%
[3]; 0,1 mM
  Valeur moyenne: 12660 cpm
[3]; 1 mM
  Valeur moyenne: 18691 cpm

## CC(N)C[C@@H]1OC[C@@H](O)[C@H](O)[C@H]1O (stereo partly drawn) [1-[2-amino-propyl]-C-β-D-xylopyranose]
[2]; 0,1 mM
  activity at 100 µM: 91%
  Valeur moyenne: 2301 cpm
[2]; 1 mM
  activity at 1000 µM: 139%
  Valeur moyenne: 3507 cpm
[3]; [5]
  activity at 100 µM: 113%
[3]; [6]
  activity at 1000 µM: 225%
[3]; 0,1 mM
  Valeur moyenne: 14465 cpm
[3]; 1 mM
  Valeur moyenne: 28870 cpm

## CCOC(=O)C(Cc1ccccc1)NC(C)CC1OCC(O)C(O)C1O [Composé de l'exemple 5, chlorhydratede l'ester éthyliquede l'acide 2R-[1-méthyl 2-(C-β-D-xylopyranoside) éthyl]-amino 3-phényl propanoïque]
[1]; Fibroblast, fibroblasts, 0,37 mM, control = 100, n=3, read-out: % (synthèse des glycosaminoglycanes par rapport au témoin)
  activity at 370 µM: 616%
[1]; Fibroblast, fibroblasts, 1,11 mM, control = 100, n=3, read-out: % (synthèse des glycosaminoglycanes par rapport au témoin)
  activity at 1110 µM: 605%
[1]; fibroblasts, 0,37 mM, n=3
  Valeur moyenne: 14373 cpm
[1]; fibroblasts, 1,11 mM, n=3
  Valeur moyenne: 14111 cpm
[1]
  augmenter la synthèse des GAGs sulfatés: très efficaces
[4]; Keratinocyte, 66 µM, control = 100, read-out: % (synthèse des glycosaminoglycanes par rapport au témoin)
  activity at 66 µM: 438%
[4]; Keratinocyte, 200 µM, control = 100, read-out: % (synthèse des glycosaminoglycanes par rapport au témoin)
  activity at 200 µM: 570%
[4]; 66 µM
  Valeur moyenne: 21975 cpm
[4]; 200 µM
  Valeur moyenne: 29007 cpm

## [Ca+2].[Cl-].[Cl-] [CaCl2, reference compound]
[4]; positive control CaCl2 at 1,4 mM, control = 100, 1400 µM
  % (synthèse des glycosaminoglycanes par rapport au témoin): 117%
[4]; positive control CaCl2 at 1,4 mM
  Valeur moyenne: 5273 cpm

## CCCNC(C)C[C@@H]1OC[C@@H](O)[C@H](O)[C@H]1O (some centres unmarked) [Composé de l'exemple 11]
[1]
  augmenter la synthèse des GAGs sulfatés: très efficaces
[2]; 0,1 mM
  activity at 100 µM: 127%
  Valeur moyenne: 3197 cpm
[2]; 1 mM
  activity at 1000 µM: 441%
  Valeur moyenne: 11109 cpm
[3]; Keratinocyte, 0,1 µM, control = 100, read-out: % (synthèse des glycosaminoglycanes par rapport au témoin)
  activity at 0.1 µM: 112%
[3]; Keratinocyte, 1 µM, control = 100, read-out: % (synthèse des glycosaminoglycanes par rapport au témoin)
  activity at 1 µM: 351%
[3]; 0,1 µM
  Valeur moyenne: 14408 cpm
[3]; 1 µM
  Valeur moyenne: 45124 cpm

## CNC(C)C[C@@H]1OC[C@@H](O)[C@H](O)[C@H]1O (stereo partly drawn) [1-[2-(méthylamino)-propyl]-C-β-D-xylopyranose]
[2]; 0,1 mM
  activity at 100 µM: 102%
  Valeur moyenne: 2569 cpm
[2]; 1 mM
  activity at 1000 µM: 106%
  Valeur moyenne: 2659 cpm
[3]; [5]
  activity at 100 µM: 93%
[3]; [6]
  activity at 1000 µM: 139%
[3]; 0,1 mM
  Valeur moyenne: 11922 cpm
[3]; 1 mM
  Valeur moyenne: 17916 cpm
